In brackets after ≈: the same amount, converted by molar mass. Read-outs that look alike come from different tables or passages of the source.
Experiments:
Assay in all cases: Antibacterial activity (MIC), agar dilution
Assay type in all cases: cell-based
E. coli NIHJ JC-2 = conditions: Escherichia coli, NIHJJC2, 20 h
Excerpt: (§1) The amount of bacteria inoculated was 10^4 cells per plate (10^6 cells per ml).

E. coli TK-111 = conditions: Escherichia coli, TK111, 20 h, E. coli TK-111; 10^6 cells per ml; 37° C., 20 hours; read-out: MIC
Excerpt: as §1

Ent. cloacae IID977 = conditions: Enterobacter cloacae, IID977, 20 h
Excerpt: as §1

Kl. pneumoniae Y-41 = conditions: Klebsiella pneumoniae, Y41, 10^6 cells per ml, 37° C., 20 hours, read-out: MIC
Excerpt: as §1

Kl. pneumoniae Y-50 = conditions: Klebsiella pneumoniae, Y50, 20 h, 10^6 cells per ml, 37° C., read-out: MIC
Excerpt: as §1

Pro. mirabilis T-111 = conditions: Proteus mirabilis, 37° C.
Excerpt: as §1

Pro. morganii T-216 = conditions: Morganella morganii, 37° C.
Excerpt: as §1

Pro. vulgaris GN3027 = conditions: Proteus vulgaris, GN3027, 20 h, Pro. vulgaris GN3027; 10^6 cells per ml; 37° C., 20 hours; read-out: MIC
Excerpt: as §1

Ps. aeruginosa IFO3445 = conditions: Pseudomonas aeruginosa
Excerpt: as §1

Ps. aeruginosa S-68 = conditions: Pseudomonas aeruginosa
Excerpt: as §1

St. aureus FDA209P = conditions: Staphylococcus aureus, FDA209P, 20 h, St. aureus FDA209P; 10^6 cells per ml; 37° C., 20 hours; read-out: MIC
Excerpt: as §1

E. coli TK-3* = conditions: Escherichia coli, 20 h
Excerpt: as §1
(§2) * Penicillinase-producing bacteria

Kl. pneumoniae Y-4* = conditions: Klebsiella pneumoniae, 20 h, Kl. pneumoniae Y-4, penicillinase-producing; 10^6 cells per ml; read-out: MIC
Excerpt: as §1, §2

Ps. aeruginosa GN3379* = conditions: Pseudomonas aeruginosa, Ps. aeruginosa GN3379, penicillinase-producing, 10^6 cells per ml
Excerpt: as §1, §2

St. aureus F-137* = conditions: Staphylococcus aureus, 20 h, St. aureus F-137, penicillinase-producing; 10^6 cells per ml; read-out: MIC
Excerpt: as §1, §2

E. coli GN5482** = conditions: Escherichia coli, 20 h; E. coli GN5482, cephalospolinase-producing; 10^6 cells per ml; read-out: MIC
Excerpt: as §1
(§3) ** Cephalospolinase-producing bacteria

Pro. vulgaris GN76** = conditions: Proteus vulgaris, 20 h; Pro. vulgaris GN76, cephalospolinase-producing; 10^6 cells per ml; read-out: MIC
Excerpt: as §1, §3

Ps. aeruginosa GN918** = conditions: Pseudomonas aeruginosa, 20 h; Ps. aeruginosa GN918, cephalospolinase-producing; 10^6 cells per ml; read-out: MIC
Excerpt: as §1, §3

Aci. antitratus A-6 = conditions: 20 h, Aci. antitratus A-6; 10^6 cells per ml; 37° C., 20 hours; read-out: MIC
Excerpt: as §1

[1] = E. coli NIHJ JC-2, 10^6 cells per ml, 37° C., 20 hours, read-out: MIC
[2] = Ent. cloacae IID977, 10^6 cells per ml, 37° C., 20 hours, read-out: MIC
[3] = T111, 10^6 cells per ml, 20 hours, read-out: MIC
[4] = T216, 10^6 cells per ml, 20 hours, read-out: MIC
[5] = Ps. aeruginosa IFO3445, 10^6 cells per ml, 37° C., 20 hours, read-out: MIC
[6] = S68, Ps. aeruginosa S-68, 10^6 cells per ml, 37° C., 20 hours, read-out: MIC
[7] = E. coli TK-3, penicillinase-producing, 10^6 cells per ml, read-out: MIC

| SMILES | MIC (E. coli TK-111) | MIC (Kl. pneumoniae Y-41) | MIC (Kl. pneumoniae Y-50) | MIC (Pro. mirabilis T-111; T111, 20 h, 10^6 cells per ml) | MIC (Pro. vulgaris GN3027) | MIC (Ps. aeruginosa IFO3445; IFO3445, 20 h) | MIC (Ps. aeruginosa S-68; S68, 20 h) | MIC (St. aureus FDA209P) | MIC (Kl. pneumoniae Y-4*) | MIC (Ps. aeruginosa GN3379*; GN3379, 20 h) | MIC (St. aureus F-137*) | MIC (E. coli GN5482**) | MIC (Pro. vulgaris GN76**) | MIC (Ps. aeruginosa GN918**) | MIC (E. coli NIHJ JC-2; [1]) | MIC (Ent. cloacae IID977; [2]) | MIC (Pro. morganii T-216; [4]) | MIC (E. coli TK-3*; [7]) | MIC (Ps. aeruginosa GN3379*; 20 h, read-out: MIC) | MIC (Aci. antitratus A-6) | other results |
| --- | --- | --- | --- | --- | --- | --- | --- | --- | --- | --- | --- | --- | --- | --- | --- | --- | --- | --- | --- | --- | --- |
| O=C(O)c1cn(-c2ccc(F)cc2)c(-c2cc3ccccc3s2)cc1=O | 0.78 µg/mL (≈ 2.13 µM) | 6.25 µg/mL (≈ 17.1 µM) | 3.13 µg/mL (≈ 8.57 µM) | 3.13 µg/mL (≈ 8.57 µM) | 0.39 µg/mL (≈ 1.07 µM) | 12.5 µg/mL (≈ 34.2 µM) | 6.25 µg/mL (≈ 17.1 µM) | 0.78 µg/mL (≈ 2.13 µM) | 12.5 µg/mL (≈ 34.2 µM) | 12.5 µg/mL (≈ 34.2 µM) | 0.39 µg/mL (≈ 1.07 µM) | 0.39 µg/mL (≈ 1.07 µM) | 1.56 µg/mL (≈ 4.27 µM) | 1.56 µg/mL (≈ 4.27 µM) | – | – | – | – | – | – | MIC (E. coli NIHJ JC-2): 3.13 µg/mL (≈ 8.57 µM); MIC (Ent. cloacae IID977): 3.13 µg/mL (≈ 8.57 µM); MIC (Pro. morganii T-216; T216, 20 h, 10^6 cells per ml): 3.13 µg/mL (≈ 8.57 µM); MIC (E. coli TK-3*): 3.13 µg/mL (≈ 8.57 µM) |
| Cc1cc(O)ccc1-n1cc(C(=O)O)c(=O)cc1-c1ccc(-c2cccs2)cc1 | ≤ 0.05 µg/mL | 0.78 µg/mL (≈ 1.93 µM) | 0.39 µg/mL (≈ 0.967 µM) | – | ≤ 0.05 µg/mL | – | – | ≤ 0.05 µg/mL | 0.78 µg/mL (≈ 1.93 µM) | – | ≤ 0.05 µg/mL | ≤ 0.05 µg/mL | 0.2 µg/mL (≈ 0.496 µM) | 0.78 µg/mL (≈ 1.93 µM) | 0.1 µg/mL (≈ 0.248 µM) | 0.39 µg/mL (≈ 0.967 µM) | 0.39 µg/mL (≈ 0.967 µM) | 0.39 µg/mL (≈ 0.967 µM) | 3.13 µg/mL (≈ 7.76 µM) | – | MIC (Pro. mirabilis T-111; [3]): 0.39 µg/mL (≈ 0.967 µM); MIC (Ps. aeruginosa IFO3445; [5]): 6.25 µg/mL (≈ 15.5 µM); MIC (Ps. aeruginosa S-68; [6]): 1.56 µg/mL (≈ 3.87 µM) |
| O=C(O)c1cn(-c2ccc(O)cc2)c(-c2ccc3ccsc3c2)cc1=O | ≤ 0.05 µg/mL | 0.78 µg/mL (≈ 2.15 µM) | 0.39 µg/mL (≈ 1.07 µM) | 1.56 µg/mL (≈ 4.29 µM) | ≤ 0.05 µg/mL | 1.56 µg/mL (≈ 4.29 µM) | 1.56 µg/mL (≈ 4.29 µM) | 0.1 µg/mL (≈ 0.275 µM) | 1.56 µg/mL (≈ 4.29 µM) | – | 0.1 µg/mL (≈ 0.275 µM) | ≤ 0.05 µg/mL | 0.39 µg/mL (≈ 1.07 µM) | 0.78 µg/mL (≈ 2.15 µM) | 0.2 µg/mL (≈ 0.55 µM) | 0.39 µg/mL (≈ 1.07 µM) | 0.39 µg/mL (≈ 1.07 µM) | 0.39 µg/mL (≈ 1.07 µM) | 3.13 µg/mL (≈ 8.61 µM) | – | – |
| CC(=O)Oc1ccc(-n2cc(C(=O)O)c(=O)cc2-c2cc3ccccc3o2)cc1 | 0.78 µg/mL (≈ 2 µM) | 6.25 µg/mL (≈ 16.1 µM) | 0.78 µg/mL (≈ 2 µM) | 6.25 µg/mL (≈ 16.1 µM) | 0.39 µg/mL (≈ 1 µM) | 6.25 µg/mL (≈ 16.1 µM) | 6.25 µg/mL (≈ 16.1 µM) | 0.39 µg/mL (≈ 1 µM) | 12.5 µg/mL (≈ 32.1 µM) | 6.25 µg/mL (≈ 16.1 µM) | 0.39 µg/mL (≈ 1 µM) | 0.2 µg/mL (≈ 0.514 µM) | 1.56 µg/mL (≈ 4.01 µM) | – | 1.56 µg/mL (≈ 4.01 µM) | 3.13 µg/mL (≈ 8.04 µM) | 3.13 µg/mL (≈ 8.04 µM) | 3.13 µg/mL (≈ 8.04 µM) | – | 0.78 µg/mL (≈ 2 µM) | – |
| COc1ccc(-c2ccc(-c3cc(=O)c(C(=O)O)cn3-c3ccc(O)cc3)s2)cc1 | 0.1 µg/mL (≈ 0.238 µM) | 1.56 µg/mL (≈ 3.72 µM) | 0.78 µg/mL (≈ 1.86 µM) | 1.56 µg/mL (≈ 3.72 µM) | 0.2 µg/mL (≈ 0.477 µM) | 3.13 µg/mL (≈ 7.46 µM) | 1.56 µg/mL (≈ 3.72 µM) | 0.1 µg/mL (≈ 0.238 µM) | 3.13 µg/mL (≈ 7.46 µM) | – | 0.1 µg/mL (≈ 0.238 µM) | ≤ 0.05 µg/mL | 0.39 µg/mL (≈ 0.93 µM) | – | 0.39 µg/mL (≈ 0.93 µM) | 0.78 µg/mL (≈ 1.86 µM) | 0.78 µg/mL (≈ 1.86 µM) | 0.78 µg/mL (≈ 1.86 µM) | 6.25 µg/mL (≈ 14.9 µM) | 0.39 µg/mL (≈ 0.93 µM) | – |
| CN(C)c1ccc(-c2cc(=O)c(C(=O)O)cn2-c2ccc(O)cc2F)cc1 | ≤ 0.05 µg/mL | 3.13 µg/mL (≈ 8.5 µM) | 0.2 µg/mL (≈ 0.543 µM) | – | ≤ 0.05 µg/mL | – | – | ≤ 0.05 µg/mL | 0.78 µg/mL (≈ 2.12 µM) | 3.13 µg/mL (≈ 8.5 µM) | ≤ 0.05 µg/mL | ≤ 0.05 µg/mL | 0.2 µg/mL (≈ 0.543 µM) | – | 0.1 µg/mL (≈ 0.271 µM) | 0.2 µg/mL (≈ 0.543 µM) | 0.78 µg/mL (≈ 2.12 µM) | 0.2 µg/mL (≈ 0.543 µM) | – | 0.1 µg/mL (≈ 0.271 µM) | MIC (Pro. mirabilis T-111; [3]): 0.78 µg/mL (≈ 2.12 µM); MIC (Ps. aeruginosa IFO3445; [5]): 1.56 µg/mL (≈ 4.23 µM); MIC (Ps. aeruginosa S-68; [6]): 0.78 µg/mL (≈ 2.12 µM) |
| O=C(O)c1cn(-c2ccc(O)cc2)c(-c2ccc(-c3ccc(O)cc3)s2)cc1=O | ≤ 0.05 µg/mL | 3.13 µg/mL (≈ 7.72 µM) | 0.78 µg/mL (≈ 1.92 µM) | 6.25 µg/mL (≈ 15.4 µM) | 0.39 µg/mL (≈ 0.962 µM) | 3.13 µg/mL (≈ 7.72 µM) | 6.25 µg/mL (≈ 15.4 µM) | 0.1 µg/mL (≈ 0.247 µM) | 6.25 µg/mL (≈ 15.4 µM) | 3.13 µg/mL (≈ 7.72 µM) | 0.2 µg/mL (≈ 0.493 µM) | ≤ 0.05 µg/mL | 0.78 µg/mL (≈ 1.92 µM) | – | 0.39 µg/mL (≈ 0.962 µM) | 1.56 µg/mL (≈ 3.85 µM) | 1.56 µg/mL (≈ 3.85 µM) | 0.78 µg/mL (≈ 1.92 µM) | – | 0.78 µg/mL (≈ 1.92 µM) | – |

Reference: patent US4698352A, “4-oxo-1,4-dihydronicotinic acid derivatives, salts thereof, and antibacterial agents containing the same” (Toyama Chemical Co., Ltd., priority 1982, dated 1987)
